Values belong to the molecule of their own block, whether it stands above or below them. Activity calls are given as the source filed them. No cut-off for these calls is given here.
How the values were obtained:
[1] = target: T1, Succinyl-diaminopimelate desuccinylase (Haemophilus influenzae (strain ATCC 51907 / DSM 11121 / KW20 / Rd)) (UniProt P44514); experiment: Thermal stabilization of Haemophilus influenzae DapE assessed as increase in first melting temperature by SYPRO orange dye based thermal shift assay
T1 sequence (whole entry): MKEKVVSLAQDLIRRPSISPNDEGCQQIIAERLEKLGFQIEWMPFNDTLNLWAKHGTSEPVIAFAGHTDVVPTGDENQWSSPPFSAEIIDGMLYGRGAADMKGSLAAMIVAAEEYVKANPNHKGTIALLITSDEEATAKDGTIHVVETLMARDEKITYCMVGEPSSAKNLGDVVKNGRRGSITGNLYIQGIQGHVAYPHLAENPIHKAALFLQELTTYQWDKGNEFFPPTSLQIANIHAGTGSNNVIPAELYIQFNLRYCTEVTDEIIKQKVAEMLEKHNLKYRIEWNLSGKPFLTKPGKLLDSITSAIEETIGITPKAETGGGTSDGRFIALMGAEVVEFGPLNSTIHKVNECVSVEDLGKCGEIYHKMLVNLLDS

[2] = target: T2, Succinyl-diaminopimelate desuccinylase (Haemophilus influenzae (strain ATCC 51907 / DSM 11121 / KW20 / Rd), UniProt P44514); experiment: Inhibition of Haemophilus influenzae DapE at 100 degreeC incubated for 10 mins by ninhydrin based assay
T2 sequence (P44514 whole entry): T1 sequence (whole entry)

[3] = target: T1, Succinyl-diaminopimelate desuccinylase (Haemophilus influenzae (strain ATCC 51907 / DSM 11121 / KW20 / Rd)); experiment: Thermal stabilization of Haemophilus influenzae DapE assessed as increase in second melting temperature by SYPRO orange dye based thermal shift assay
[4] = target: T2, Succinyl-diaminopimelate desuccinylase; experiment: Binding affinity to Haemophilus influenzae DapE assessed as dissociation constant
[5] = target: T2, Succinyl-diaminopimelate desuccinylase; experiment: Inhibition of Haemophilus influenzae DapE at 80 degreeC incubated for 15 mins by ninhydrin based assay
[6] = substrate: CN[C@@H](CCC[C@H](NC(=O)CCC(=O)O)C(=O)O)C(=O)O; experiment: (§1) Substrate activity at Haemophilus influenzae DapE assessed as Kcat/Km incubated for 10 mins by ninhydrin based assay
[7] = substrate: CN(C)[C@@H](CCC[C@H](NC(=O)CCC(=O)O)C(=O)O)C(=O)O; experiment: as §1
[8] = substrate: CN(C)[C@@H](CCC[C@H](NC(=O)CCC(=O)O)C(=O)O)C(=O)O; experiment: Substrate activity at Haemophilus influenzae DapE assessed as Kcat/Km at 100 DegreeC incubated for 10 mins by ninhydrin assay
[9] = substrate: CN(C)[C@@H](CCC[C@H](NC(=O)CCC(=O)O)C(=O)O)C(=O)O; experiment: Substrate activity at Haemophilus influenzae DapE assessed as Kcat/Km at 80 DegreeC incubated for 15 mins by ninhydrin based assay

Activity [1]: Active
Molecule: CN[C@@H](CCC[C@H](NC(=O)CCC(=O)O)C(=O)O)C(=O)O

IC50 [2]: 1.5 µM | ΔTm [3]: 3 °C | Kd [4]: 1320 µM | Activity [1]: Active | IC50 [5]: 0.89 µM
Molecule: CN(C)[C@@H](CCC[C@H](NC(=O)CCC(=O)O)C(=O)O)C(=O)O

B1: Succinyl-diaminopimelate desuccinylase (Haemophilus influenzae (strain ATCC 51907 / DSM 11121 / KW20 / Rd)), P44514 (protein)
chain: T1 sequence (whole entry)
kcat/Km [6]: 4.4 10^5/M/s | kcat/Km [7]: 3.49 10^5/M/s | kcat/Km [8]: 4.03 10^5/M/s | kcat/Km [9]: 3.49 10^5/M/s
